Patent US10363231B2, “Compounds and methods of treating ocular disorders” (CASE WESTERN RESERVE UNIVERSITY, priority 2014, dated 2019)

Biological target: T1, LRAT (Bos taurus, UniProt Q9BGL2)
T1 construct: incubated with RPF microsomes that served as a source of LRAT enzymatic activity; from tissue; host or cells: bovine retinal pigment epithelium (RPE) microsomes
T1 sequence (Q9BGL2 1-230): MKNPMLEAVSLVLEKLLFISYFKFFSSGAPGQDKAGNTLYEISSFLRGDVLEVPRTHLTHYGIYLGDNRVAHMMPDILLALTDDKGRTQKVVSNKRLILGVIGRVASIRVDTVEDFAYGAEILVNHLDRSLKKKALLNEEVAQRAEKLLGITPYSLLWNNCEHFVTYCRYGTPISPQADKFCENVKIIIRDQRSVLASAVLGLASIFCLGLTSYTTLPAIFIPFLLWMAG
Experiment: LRAT activity assay with bovine RPE microsomes (esterification of the corresponding primary alcohols)
Format: biochemical
Details: for LRAT Substrate: percentage of the corresponding primary alcohol esterified by LRAT in 1 h at 37° C, 10 μM, RPE microsomes
Protocol: Bovine RPE microsomes were isolated from RPE homogenates by differential centrifugation as previously described. The resulting microsomal precipitate was resuspended in 10 mM Bis-Tris propane/HCl buffer, pH 7.4, to achieve a total protein concentration of […]. Then the mixture was placed in a quartz cuvette and irradiated for 6 min at 4° C. with a ChromatoUVE transilluminator (model TM-15; UVP) to eliminate residual retinoids. After irradiation, DTT was added to the RPE microsomal mixture to achieve a final concentration of 5 mM.
Two μl of a synthesized primary alcohol or amine dissolved in DMF (final concentration 10 μM) and 2 μl of 1,2-diheptanoyl-sn-glicerol-3-phosphocholine (water, final concentration 1 mM) were added to 200 μl of 10 mM Bis-Tris propane/HCl buffer, pH 7.4, containing 150 μg of RPE microsomes and 1% (v/w) BSA. The resulting mixture was incubated at 37° C. for 1 h. The reaction was quenched by adding 300 μl of methanol. Most reaction products were extracted with 300 μl of hexanes, except for products from the QEA-C-006 and QEA-G groups which were extracted by adding 300 μl of ethyl acetate and 300 μl of water.
Reaction products were separated and quantified by normal phase HPLC (Agilent Sil 5 μm, 4.6 mm×250 mm) in stepwise gradient of ethyl acetate in hexanes (0-15 min, 10%; 20-30 min, 30%) at a flow rate of 1.4 ml·min^−1.
The properties of retinoid derivatives were examined by two standard enzymatic tests, the […] and retinoid isomerization assays. To identify substrates of LRAT, aldehydes were reduced by sodium borohydrate to their corresponding primary alcohols that then were directly used in the esterification assay (FIG. 2B).
The alcohols were incubated with RPF microsomes that served as a source of LRAT enzymatic activity. Products of the enzymatic reaction as well as the remaining substrates were extracted with organic solvents and analyzed by HPLC. The ratio between a substrate and its esterified form was used to measure enzymatic activity efficiency, based on equivalent UV absorption of the substrate and product at their specific UV maxim wavelengths. Compounds classified as ‘good’ LRAT substrates converted at least 50% of their available alcohol substrates into corresponding esters under these experimental conditions, whereas marginal LRAT substrates were converted at less than 5%. Alcohols with a 5-50% conversion ratio were classified as weak substrates. Among 35 tested compounds, 23 were categorized as good and 9 as weak substrates; 3 compounds were not esterified by LRAT (Table 1 and FIG. 2C). […] Moreover, breaking double bond conjugation along the polyene chain or deletion of a C9 and/or a C13 methyl group also was allowed.

Row | SMILES | LRAT Substrate [%] | LRAT substrate class (conversion of the alcohol to ester)
1 | CC1=C(/C=C/C(C)=C/C=C/C(C)=C/CN)C(C)(C)CCC1 [QEA-A-001-NH2, retinylamine] | 100 | –
2 | CC(/C=C/C=C(/C=C/C1=CCCCC1)C(C)(C)C)=C\CN [QEA-B-001-NH2] | 80 | good (Compounds classified as ‘good’ LRAT substrates converted at least 50% of their available alcohol substrates into corresponding esters)
